Laboratory results as given in the NIST ThermoML archive (doi:10.1021/acs.jced.6b00290).
± gives the expanded uncertainty stated by the source.

Test: refractive index (Na D-line) (dimensionless); wn = mass fraction of the nth substance listed
Settings: 333.15 K, 100 kPa, Liquid, Standard Abbe refractometry

| Compound | refractive index (w1 = 0.5241) | refractive index (w1 = 0.3525) |
| --- | --- | --- |
| [Br-].[Br-].[Mg+2] [magnesium bromide (MgBr2)] + O | 1.4594 ± 0.0004 |  |
| O=S(=O)([O-])[O-].[Mg+2] [magnesium sulfate] + O |  | 1.3957 ± 0.0004 |
